Assay results as given in patent publication US20250115591A1, “NOVEL SULFONAMIDE CARBOXAMIDE COMPOUNDS” (INFLAZOME LIMITED, priority 2017, published 2025).
Where a name gives a salt, the structure may show the parent alone.

Columns and labels:
[1] = PK, intravenous administration; type: in vivo, male Sprague Dawley rats; conditions: male, Sprague Dawley, plasma, rat, intravenous, dose 1 mg/kg; for AUC: read-out: AUC; for clearance: read-out: Cl; for half-life: read-out: T1/2 (converted); for Vd: read-out: Vdss
Experimental: (§1) Pharmacokinetic parameters were determined in male Sprague Dawley rats (Charles River, UK, 250-300 g; or Vital River Laboratory Animal Technology Co Ltd, Beijing, China, 7-9 weeks old). Animals were individually housed during the study and maintained under a 12 h light/dark cycle. Animals had free access to food and water except that orally dosed animals were food deprived overnight prior to the study. For intravenous administration, compounds were formulated as a solution in water or DMSO:PBS [10:90] in 2 mL/kg dosing volume and administered via tail vein. For oral administration, compounds were formulated as a solution in water or DMSO:water [10:90] in 5 mL/kg dosing volume and administered orally. Serial blood samples (about 120-300 μL) were taken from each animal at each of 8 time-points post dose (0.083, 0.25, 0.5, 1, 2, 4, 8 and 24 h). Samples were held on ice for no longer than 30 minutes before centrifugation (10,000 rpm (8,385 g) for 3 minutes; or 5,696 rpm (3,000 g) for 15 minutes) for plasma generation. Plasma was frozen on dry ice prior to bioanalysis. PK parameters were generated from LC-MS/MS data using Dotmatics or Phoenix WinNonlin 6.3 software.

NLRP3 [2] = target: T1, NLRP3 (Homo sapiens (Human), UniProt Q96P20); experiment: Human whole blood IL1β release assay (LPS + nigericin); type: cell-based; conditions: human whole blood, 1 μg/ml LPS, nigericin, IL-1β release; read-out: HWB IC50
Summary of the method: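 Healthy-donor heparinized whole blood with 1 μg/ml LPS preincubated 3 h at 37 °C with compound (8-point half-log, top 10 μM, 0.1% DMSO), then nigericin 1 h. Supernatant IL-1β by AlphaLISA; IC50 from 4-parameter variable-slope fit.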

PK, oral administration = type: in vivo, male Sprague Dawley rats; conditions: male, Sprague Dawley, plasma, rat, dose 3 mg/kg
Experimental: as §1

NLRP3 [3] = target: T1, NLRP3; experiment: THP-1 cells pyroptosis assay (LPS + nigericin, resazurin read-out); type: cell-based; conditions: 1 μg/ml LPS, 5 μM nigericin
Summary of the method: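 LPS-primed (1 μg/ml) human THP-1 cells in serum-free RPMI were exposed to compound (8-point half-log series, top dose as printed "10M") for 3 h at 37 °C, then to nigericin 5 μM for 1 h. Remaining viability was read by resazurin (100 μM, 1-2 h) fluorescence, and IC50 came from 4-parameter variable-slope regression.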

T1 sequence (Q96P20 whole entry): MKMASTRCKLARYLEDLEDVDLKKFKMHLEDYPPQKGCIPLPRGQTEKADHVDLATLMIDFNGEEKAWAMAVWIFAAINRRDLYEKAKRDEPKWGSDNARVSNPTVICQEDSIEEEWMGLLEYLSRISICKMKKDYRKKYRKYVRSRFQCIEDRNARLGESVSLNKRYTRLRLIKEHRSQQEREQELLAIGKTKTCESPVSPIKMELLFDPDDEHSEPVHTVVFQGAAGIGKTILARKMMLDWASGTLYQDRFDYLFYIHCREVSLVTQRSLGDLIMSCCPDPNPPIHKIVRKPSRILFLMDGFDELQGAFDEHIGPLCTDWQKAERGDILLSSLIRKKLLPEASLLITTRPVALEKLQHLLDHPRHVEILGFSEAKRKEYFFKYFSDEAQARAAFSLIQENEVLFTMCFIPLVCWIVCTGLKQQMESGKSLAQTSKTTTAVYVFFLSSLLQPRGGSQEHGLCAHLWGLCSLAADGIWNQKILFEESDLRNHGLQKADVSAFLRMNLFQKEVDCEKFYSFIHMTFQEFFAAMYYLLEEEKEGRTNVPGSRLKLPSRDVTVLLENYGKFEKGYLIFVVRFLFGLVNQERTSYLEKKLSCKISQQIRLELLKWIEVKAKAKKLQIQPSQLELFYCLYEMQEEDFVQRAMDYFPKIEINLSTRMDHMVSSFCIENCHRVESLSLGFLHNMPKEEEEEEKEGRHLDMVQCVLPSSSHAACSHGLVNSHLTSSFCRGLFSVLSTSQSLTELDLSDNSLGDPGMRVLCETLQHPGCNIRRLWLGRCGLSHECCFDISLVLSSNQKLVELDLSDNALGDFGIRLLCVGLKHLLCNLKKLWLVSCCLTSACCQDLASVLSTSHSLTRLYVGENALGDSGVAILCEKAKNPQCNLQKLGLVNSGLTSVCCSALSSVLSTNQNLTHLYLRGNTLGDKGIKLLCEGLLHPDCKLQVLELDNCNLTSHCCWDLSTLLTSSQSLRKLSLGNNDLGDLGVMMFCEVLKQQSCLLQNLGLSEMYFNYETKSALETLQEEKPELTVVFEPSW

Compound	AUC [1]	clearance [1]	half-life [1]	Vd [1]	IC50 (NLRP3 [2])	AUC (PK, oral administration)	Cmax (PK, oral administration)	Tmax (PK, oral administration)	half-life (PK, oral administration)	IC50 (NLRP3 [3])
CCN1CCC(S(=O)(=O)NC(=O)Nc2c3c(cc4c2CCC4)CCC3)CC1 [Example 6, 1-Ethyl-N-((1,2,3,5,6,7-hexahydro-s-indacen-4-yl)carbamoyl)piperidine-4-sulfonamide, potassium salt]	2340 ng·h/mL	7.2 mL/min/kg	162 min	0.61 L/kg	< 1000 nM	5400 ng·h/mL	1770 ng/mL	30 min	162 min	< 1000 nM
CC(C)N1CC(S(=O)(=O)NC(=O)Nc2c3c(cc4c2CCC4)CCC3)C1 [Example 46, N-((1,2,3,5,6,7-Hexahydro-s-indacen-4-yl)carbamoyl)-1-iso-propylazetidine-3-sulfonamide, potassium salt]	2080 ng·h/mL	8.2 mL/min/kg	72 min	0.45 L/kg	< 1000 nM	3510 ng·h/mL	1330 ng/mL	40.2 min	84 min	< 1000 nM
COc1cc(-c2ccc3c(c2NC(=O)NS(=O)(=O)c2ccc(=O)n(C(C)C)c2)CCC3)ccn1 [Example 153, 1-Isopropyl-N-((5-(2-methoxypyridin-4-yl)-2,3-dihydro-1H-inden-4-yl)carbamoyl)-6-oxo-1,6-dihydropyridine-3-sulfonamide]	511 ng·h/mL	32.6 mL/min/kg	66 min	1.21 L/kg	< 1000 nM					< 1000 nM
